These results are taken from article PMC3684443 (ACS chemical biology, 2012).

For test [1], the system named is HNSCC. The following applies: cited from earlier work.
Test [2] deals with HNSCC cell line 1483 xenograft tumors. Nature of the test: Antitumor effect in HNSCC xenograft model, tumor volume. Type of test: in vivo, Athymic nude mice. The following applies: 2 weeks treatment, comparison between the three treated groups.

Consider `C#Cc1cccc(Nc2ncnc3cc(OCCOC)c(OCCOC)cc23)c1` [erlotinib], for which the Clinical response rate in test [1] (HNSCC and NSCLC patients) was 4%. Moreover, in test [1] (phase II trial, for 16 weeks), the Disease stabilization is 38%. Further, in test [1] (phase II trial), the Response rate is on record as 4%. Also, the “Response among erlotinib, cetuximab and EGFRAS-GPNA groups” value in test [2] is “no significant difference”.
